Among the data in ChEMBL document CHEMBL4406859, “Antitumor and antiviral activities of 4-substituted 1,2,3-triazolyl-2,3-dibenzyl-L-ascorbic acid derivatives” (Eur J Med Chem, 2019) are Activity and EC50 values, retold here.

pEC50: −log10 of the molar value. Active and inactive are the calls of the source. The rule behind the calls is not given here.

The test system of one assay is Vaccinia virus. As to the kind of experiment: Antiviral activity against Vaccinia virus infected in human HELF cells assessed as reduction in virus-induced cytopathogenicity incubated for 7 days by microscopic analysis. It counts as functional, organism-based. Particulars: Orthopoxvirus vaccinia. (In general: Damage to the host cells serves as the signal in cytopathic effect assays.)
Regarding `O=C1O/C(=C\Cn2cc(-c3cc(F)cc(F)c3)nn2)C(OCc2ccccc2)=C1OCc1ccccc1`, the outcome was inactive.

In the case of `O=C1O[C@H]([C@@H](O)Cn2cc(C3CC3)nn2)C(OCc2ccccc2)=C1OCc1ccccc1`, the result was inactive.

With `COc1ccccc1-c1cn(C/C=C2\OC(=O)C(OCc3ccccc3)=C2OCc2ccccc2)nn1`, the outcome was inactive.

For the compound `O=C1O/C(=C\Cn2cc(-c3cccc(O)c3)nn2)C(OCc2ccccc2)=C1OCc1ccccc1`, the outcome was inactive.

With `O=C1O/C(=C\Cn2cc(-c3ccc(Br)cc3)nn2)C(OCc2ccccc2)=C1OCc1ccccc1`, the outcome was inactive.

For the compound `Cc1ccc(-c2cn(C/C=C3\OC(=O)C(OCc4ccccc4)=C3OCc3ccccc3)nn2)cc1`, the result was inactive.

Regarding `O=C1O/C(=C\Cn2cc(CCO)nn2)C(OCc2ccccc2)=C1OCc1ccccc1`, the result was inactive.

Regarding `CCCCCCCCCCc1cn(C[C@H](O)[C@H]2OC(=O)C(OCc3ccccc3)=C2OCc2ccccc2)nn1`, the outcome was inactive.

Turning to `CC(C)(C)c1cn(C/C=C2\OC(=O)C(OCc3ccccc3)=C2OCc2ccccc2)nn1`, the result was inactive.

Turning to `C[Si](C)(C)c1cn(C[C@H](O)[C@H]2OC(=O)C(OCc3ccccc3)=C2OCc2ccccc2)nn1`, the result was inactive.

Regarding `CCCCc1cn(C[C@H](O)[C@H]2OC(=O)C(OCc3ccccc3)=C2OCc2ccccc2)nn1`, the result was inactive.

Consider `CC(C)(C)c1cn(C[C@H](O)[C@H]2OC(=O)C(OCc3ccccc3)=C2OCc2ccccc2)nn1`, for which the result was inactive.

Consider `COc1ccc(-c2cn(C/C=C3\OC(=O)C(OCc4ccccc4)=C3OCc3ccccc3)nn2)cc1`, for which the result was inactive.

Staying with this assay, now noted: Orthopoxvirus vaccinia, 168 h.
In general, pEC50 refers to −log10 of the EC50, conventionally taken in molar units. As to `CCCCc1cn(C/C=C2\OC(=O)C(OCc3ccccc3)=C2OCc2ccccc2)nn1`, the pEC50 is less than 4.00.

With `Nc1nc2c(ncn2COCCO)c(=O)[nH]1` [ACYCLOVIR], the pEC50 is less than 3.60.

As for `Nc1nc(O)c2ncn(COC(CO)CO)c2n1` [GANCICLOVIR], the pEC50 was less than 4.00.

As to `O=c1[nH]c(=O)n([C@H]2C[C@H](O)[C@@H](CO)O2)cc1/C=C/Br` [BRIVUDINE], the pEC50 was 4.07.
